From patent publication US8969386B2, “Modulators of CFTR” (Vertex Pharmaceuticals Incorporated, priority 2007, dated 2015)

Biological target: T1, ΔF508-CFTR (Homo sapiens, UniProt P13569, DEL508-508)
T1 construct: expressed in transfected cells
Assay: ΔF508-CFTR correction, membrane potential optical (FRET/VIPR) assay
Assay type: cell-based
Settings: NIH3T3 mouse fibroblasts stably expressing ΔF508-CFTR; for Emax: read-out: % Efficacy
Source text: Assays for Detecting and Measuring ΔF508-CFTR Correction Properties of Compounds
Membrane potential optical methods for assaying ΔF508-CFTR modulation properties of compounds
The optical membrane potential assay utilized voltage-sensitive FRET sensors described by Gonzalez and Tsien (See Gonzalez, J. E. and R. Y. Tsien (1995) “Voltage sensing by fluorescence resonance energy transfer in single cells” Biophys J 69(4): 1272-80, and Gonzalez, J. E. and R. Y. Tsien (1997) “Improved indicators of cell membrane potential that use fluorescence resonance energy transfer” Chem Biol 4(4): 269-77) in combination with instrumentation for measuring fluorescence changes such as the Voltage/Ion Probe Reader (VIPR) (See Gonzalez, J. E., K. Oades, et al. (1999) “Cell-based assays and instrumentation for screening ion-channel targets” Drug Discov Today 4(9): 431-439).
These voltage sensitive assays are based on the change in fluorescence resonant energy transfer (FRET) between the membrane-soluble, voltage-sensitive dye, DiSBAC2(3), and a fluorescent phospholipid, CC2-DMPE, which is attached to the outer leaflet of the plasma membrane and acts as a FRET donor. Changes in membrane potential (Vm) cause the negatively charged DiSBAC2(3) to redistribute across the plasma membrane and the amount of energy transfer from CC2-DMPE changes accordingly. The changes in fluorescence emission were monitored using VIPR™ II, which is an integrated liquid handler and fluorescent detector designed to conduct cell-based screens in 96- or 384-well microtiter plates.
1. Identification of Correction Compounds
To identify small molecules that correct the trafficking defect associated with ΔF508-CFTR; a single-addition HTS assay format was developed. The cells were incubated in serum-free medium for 16 hrs at 37° C. in the presence or absence (negative control) of test compound. As a positive control, cells plated in 384-well plates were incubated for 16 hrs at 27° C. to “temperature-correct” ΔF508-CFTR. The cells were subsequently rinsed 3× with Krebs Ringers solution and loaded with the voltage-sensitive dyes. To activate ΔF508-CFTR, 10 μM forskolin and the CFTR potentiator, genistein (20 μM), were added along with Cl^−-free medium to each well. The addition of Cl^−-free medium promoted Cl^− efflux in response to ΔF508-CFTR activation and the resulting membrane depolarization was optically monitored using the FRET-based voltage-sensor dyes.
NIH3T3 mouse fibroblasts stably expressing ΔF508-CFTR are used for optical measurements of membrane potential. The cells are maintained at 37° C. in 5% CO2 and 90% humidity in Dulbecco's modified Eagle's medium supplemented with 2 mM glutamine, 10% fetal bovine serum, 1×NEAA, β-ME, 1× pen/strep, and 25 mM HEPES in 175 cm^2 culture flasks. For all optical assays, the cells were seeded at 30,000/well in 384-well matrigel-coated plates and cultured for 2 hrs at 37° C. before culturing at 27° C. for 24 hrs for the potentiator assay. For the correction assays, the cells are cultured at 27° C. or 37° C. with and without compounds for 16-24 hours Electrophysiological Assays for assaying ΔF508-CFTR modulation properties of compounds

T1 sequence (P13569 with tags, fused parts or gaps DEL508-508): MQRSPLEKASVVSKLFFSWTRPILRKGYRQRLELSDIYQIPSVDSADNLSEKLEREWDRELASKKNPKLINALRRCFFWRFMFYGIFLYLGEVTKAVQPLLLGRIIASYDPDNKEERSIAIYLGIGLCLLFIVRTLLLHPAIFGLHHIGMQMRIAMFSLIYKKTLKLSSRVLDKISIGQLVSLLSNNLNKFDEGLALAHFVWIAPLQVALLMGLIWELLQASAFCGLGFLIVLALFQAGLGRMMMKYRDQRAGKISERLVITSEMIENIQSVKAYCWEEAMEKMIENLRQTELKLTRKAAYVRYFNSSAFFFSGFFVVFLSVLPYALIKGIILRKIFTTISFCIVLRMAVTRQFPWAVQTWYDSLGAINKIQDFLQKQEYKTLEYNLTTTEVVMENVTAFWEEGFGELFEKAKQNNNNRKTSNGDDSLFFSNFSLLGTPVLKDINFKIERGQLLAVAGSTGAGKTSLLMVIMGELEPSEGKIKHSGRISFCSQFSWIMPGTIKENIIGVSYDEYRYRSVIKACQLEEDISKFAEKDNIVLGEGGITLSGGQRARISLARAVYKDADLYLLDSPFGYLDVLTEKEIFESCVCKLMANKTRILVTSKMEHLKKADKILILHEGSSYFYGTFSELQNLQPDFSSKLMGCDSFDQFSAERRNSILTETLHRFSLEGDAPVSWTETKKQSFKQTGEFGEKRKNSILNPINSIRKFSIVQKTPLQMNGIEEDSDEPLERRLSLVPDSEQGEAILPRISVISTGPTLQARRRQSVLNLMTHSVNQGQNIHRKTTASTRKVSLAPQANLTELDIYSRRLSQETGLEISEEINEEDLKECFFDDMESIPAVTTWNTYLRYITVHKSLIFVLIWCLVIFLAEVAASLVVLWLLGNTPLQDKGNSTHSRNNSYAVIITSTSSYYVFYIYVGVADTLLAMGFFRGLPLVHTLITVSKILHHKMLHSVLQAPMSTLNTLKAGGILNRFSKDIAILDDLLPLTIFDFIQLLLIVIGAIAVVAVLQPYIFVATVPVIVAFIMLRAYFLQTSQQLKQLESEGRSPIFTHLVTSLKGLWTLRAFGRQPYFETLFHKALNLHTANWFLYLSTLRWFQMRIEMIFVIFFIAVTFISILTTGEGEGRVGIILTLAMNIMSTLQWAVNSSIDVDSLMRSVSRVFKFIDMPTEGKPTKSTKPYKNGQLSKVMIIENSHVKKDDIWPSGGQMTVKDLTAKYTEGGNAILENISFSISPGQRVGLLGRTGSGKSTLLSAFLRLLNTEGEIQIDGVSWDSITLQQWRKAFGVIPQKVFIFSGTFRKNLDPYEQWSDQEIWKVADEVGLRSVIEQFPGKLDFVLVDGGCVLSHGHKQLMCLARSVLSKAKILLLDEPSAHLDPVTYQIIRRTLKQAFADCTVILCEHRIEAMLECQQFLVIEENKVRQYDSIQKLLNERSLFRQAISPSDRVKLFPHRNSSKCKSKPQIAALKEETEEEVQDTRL

SMILES | EC50 | Emax
Cc1ccc(NC(=O)C2(c3ccc4c(c3)CCO4)CC2)nc1-c1ccc[nH]c1=O [Compound 84] | < 2000 nM | 50 to 100%
COc1ncc(-c2nc(NC(=O)C3(c4ccc5c(c4)OC(F)(F)O5)CC3)ccc2C)cc1C(=O)O [Compound 53] | < 2000 nM | > 100%
COc1ncc(C)cc1-c1cc(C)cc(NC(=O)C2(c3ccc4c(c3)OC(F)(F)O4)CC2)n1 [Compound 87] | < 2000 nM | > 100%
Cc1cc(NC(=O)C2(c3ccc4c(c3)OC(F)(F)O4)CC2)nc(-c2ccc(=O)[nH]c2)c1C [Compound 65] | < 2000 nM | 50 to 100%
Cc1ccc(NC(=O)C2(c3ccc(Cl)cc3)CC2)nc1-c1c[nH]c(=O)c(C)c1 [Compound 61] | < 2000 nM | 50 to 100%
Cc1ccc(NC(=O)C2(c3ccc4c(c3)OC(F)(F)O4)CC2)nc1-c1ccc(=O)n(CCS(C)(=O)=O)c1 [Compound 95] | < 2000 nM | > 100%
Cc1ccc(NC(=O)C2(c3ccc4c(c3)COC4)CC2)nc1-c1c[nH]c(=O)c(C)c1 [Compound 59] | 2000 to 5000 nM | 50 to 100%
Cc1ccc(NC(=O)C2(c3ccc4c(c3)OC(F)(F)O4)CC2)nc1-c1c[nH]c(=O)c(CO)c1 [Compound 1] | < 2000 nM | 50 to 100%
COc1cccc(-c2nc(NC(=O)C3(c4ccc5c(c4)OC(F)(F)O5)CC3)ccc2C)n1 [Compound 35] | < 2000 nM | 50 to 100%
Cc1cc(NC(=O)C2(c3ccc4c(c3)OC(F)(F)O4)CC2)nc(-c2cc[nH]c(=O)c2)c1 [Compound 19] | < 2000 nM | > 100%
COc1ccc(-c2nc(NC(=O)C3(c4ccc5c(c4)OC(F)(F)O5)CC3)ccc2Cl)cn1 [Compound 24] | < 2000 nM | > 100%
COc1cc(-c2nc(NC(=O)C3(c4ccc5c(c4)OC(F)(F)O5)CC3)ccc2C)cc(C)n1 [Compound 105] | < 2000 nM | 50 to 100%
COc1ccc(-c2nc(NC(=O)C3(c4ccc5c(c4)OC(F)(F)O5)CC3)ccc2C)c(C)n1 [Compound 36] | < 2000 nM | > 100%
COc1ncc(C)cc1-c1nc(NC(=O)C2(c3ccc4c(c3)OC(F)(F)O4)CC2)cc(C)c1C [Compound 88] | < 2000 nM | > 100%
COC(=O)Cn1ccc(-c2nc(NC(=O)C3(c4ccc5c(c4)OC(F)(F)O5)CC3)ccc2C)cc1=O [Compound 16] | < 2000 nM | 50 to 100%
COc1cc(C)c(-c2nc(NC(=O)C3(c4ccc5c(c4)OC(F)(F)O5)CC3)cc(C)c2C)cn1 [Compound 89] | < 2000 nM | > 100%
Cc1ccc(NC(=O)C2(c3ccc4c(c3)OC(F)(F)O4)CC2)nc1-c1ccc(=O)n(C[C@@H](O)CO)c1 [Compound 79] | < 2000 nM | > 100%
Cc1ccc(NC(=O)C2(c3ccc4c(c3)CCO4)CC2)nc1-c1cc[nH]c(=O)c1 [Compound 80] | < 2000 nM | 50 to 100%
Cc1ccc(NC(=O)C2(c3ccc4c(c3)OC(F)(F)O4)CC2)nc1-c1c[nH]c(=O)c(N)c1 [Compound 77] | < 2000 nM | > 100%
Cc1ccc(NC(=O)C2(c3ccc4c(c3)OC(F)(F)O4)CC2)nc1-c1ccc(=O)n(CC(=O)O)c1 [Compound 13] | > 5000 nM | 50 to 100%
Cc1ccc(NC(=O)C2(c3ccc4c(c3)OC(F)(F)O4)CC2)nc1-c1c[nH]c(=O)c(C#N)c1 [Compound 42] | < 2000 nM | 50 to 100%
Cc1ccc(NC(=O)C2(c3ccc4c(c3)OCC4)CC2)nc1-c1ccc(=O)[nH]c1 [Compound 99] | < 2000 nM | > 100%
Cc1cc(=O)[nH]cc1-c1nc(NC(=O)C2(c3ccc4c(c3)OC(F)(F)O4)CC2)cc(C)c1C [Compound 90] | < 2000 nM | > 100%
COc1ncccc1-c1nc(NC(=O)C2(c3ccc4c(c3)OC(F)(F)O4)CC2)ccc1C [Compound 15] | < 2000 nM | > 100%
COc1ccc(-c2nc(NC(=O)C3(c4ccc5c(c4)OC(F)(F)O5)CC3)ccc2C)cn1 [Compound 37] | < 2000 nM | > 100%
